Legend:
Type in all cases: in vivo, human
uterine fibroids [1] = assay: Example 1 Phase III study: volume of the three largest fibroids (TVUS)
Method: (§1) Multicenter, Phase III Study to Investigate the Efficacy and Safety of 3-Months of Treatment with UPA Followed by 10 Days of Treatment with NETA or Placebo
(§2) All patients received a 3-month treatment course of UPA 10 mg once-daily followed by randomized oral NETA 10 mg once-daily or matching placebo for 10 days. UPA treatment was started during the first 4 days of menstruation. NETA or placebo was taken daily for the first 10 days following the cessation of UPA. The schedule incorporated the potential for women to enter an extension study involving repeated intermittent courses of UPA 10 mg.
(§3) In the clinical trial the effect of treatment of uterine fibroids have been assessed by means of parameters such as uterine bleeding using the pictorial blood-loss assessment chart (PBAC), condition of the uterus using transvaginal ultrasound (TVUS) and endometrial biopsy, endometrial histology using endometrial biopsy and pain using the Short-Form McGill Pain Questionnaire (SF-MPQ and quality of life using the Uterine Fibroid Symptom and Health-Related Quality of Life (UFS-QoL) questionnaire.
(§4) The efficacy end points were: percentage of amenorrheic patients at the end of UPA treatment; change from baseline in the volume of the three largest myomas to end of UPA treatment and 2 weeks after menstruation following end of NETA/placebo treatment; and change from baseline in pain and QoL to end of UPA treatment.

endometrium [2] = assay: Example 2 long-term extension study: endometrium thickness and endometrium biopsy
From the text: (§5) Long-Term Extension of a Multicenter, Phase III Study to Investigate the Efficacy and Safety of 3-Months of Treatment with UPA Followed by 10 Days of Treatment with NETA or Placebo in Subjects with Myomas and Heavy Uterine Bleeding
(§6) The study consisted of three periods of 3 months open-label UPA treatment, each followed by 10 days of double-blind treatment with NETA or placebo and then a drug-free period. Subjects were randomly assigned to a NETA or matching placebo arm with a 1:1 ratio.
(§7) In the study of Example 1 and for each present study courses, UPA 10 mg was orally administered once daily for a period of 90 days, followed by 10 mg NETA or matching placebo once daily for a period of 10 days. The first treatment course in the present study consisted of 90 days UPA 10 mg treatment followed by 10 days of double-blind treatment (same as in Example 1 study) started between the first and fourth day of menstruation (inclusive) following visit after the end of treatment, or one month later if uterine sparing surgery had been performed and myomas were still present. The second and third treatment courses of the present study started on the first day of menstruation following visits after ends of each treatment courses, respectively.
(§8) Parameters assessed are the same as it was described in Example 1.

[3] = Example 2 long-term extension study: safety assessments (TEAEs, SAEs); details: intermittent repeated administration schedule
From the text: as §5, §6, §7, §8

uterine fibroids [4] = assay: Example 1 Phase III study: uterine bleeding, amenorrhea and return of menstruation (PBAC)
Method: as §1, §2, §3, §4
(§9) Exploratory endpoints included assessment of the strength of the first menstruation after UPA treatment (using PBAC), time to return of menstruation following treatment end, and frequency of post-treatment PAEC observed in the endometrial biopsy after return of menstruation.

uterine fibroids [5] = assay: Example 1 Phase III study: pain (SF-MPQ, VAS) and quality of life (UFS-QoL); details: for pain assessed by the VAS, median change in score: median baseline 38
Method: as §1, §2, §3, §4

myomas = assay: Example 2 long-term extension study: volume of the 3 largest myomas and uterine volume
From the text: as §5, §6, §7, §8

[6] = test system: myomas and heavy uterine bleeding; assay: Example 2 long-term extension study: uterine bleeding, amenorrhea and return of menstruation (PBAC); details: for subjects with more than 9 days of any level of bleeding (heavy bleeding, bleeding or spotting) / percentage of subjects in amenorrhea: ITT Population; for mean time to amenorrhea / median time to amenorrhea: from first dose of UPA in the course
From the text: as §5, §6
In study described in Example 1, 251 subjects were screened at 21 sites and 209 subjects started treatment with UPA of which 202 attended the end of UPA treatment visit. Of those that completed study of Example 1 (190 subjects), 132 subjects from 19 sites opted to continue in to the extension study.
as §7, §8

[7] = test system: myomas and heavy uterine bleeding; assay: Example 2 long-term extension study: surgery undertaken compared to planned; details: by the end of study; ITT population of 132, surgery initially planned for 66 (50%)
From the text: as §5, §6, §7

endometrium [8] = assay: Example 1 Phase III study: endometrial thickness
Method: as §1, §2
(§10) The safety endpoints included the number and proportion of patients experiencing treatment-emergent adverse events (TEAEs), including clinically significant changes in vital signs, physical examination, gynecological or breast examination, electrocardiogram (ECG), ovarian ultrasound, changes from baseline in endometrial thickness and clinically significant changes in endometrium biopsy. Other safety endpoints were change from baseline in hematology, coagulation, biochemistry, lipids, adrenocorticotropic hormone (ACTH), thyroid stimulating hormone (TSH) and prolactin, as well as serum levels of estradiol (E2).

[9] = test system: myomas and heavy uterine bleeding; assay: Example 2 long-term extension study: pain (SF-MPQ) and quality of life (UFS-QoL, EQ-5D)
From the text: as §5, §6, §7, §8

[10] = Example 1 Phase III study: adverse events (TEAEs, SAEs)
Method: as §1, §2, §10

[11] = Example 1 Phase III study: serum hormones and biochemistry (E2, ACTH, TSH, prolactin, transaminases)
Method: as §1, §2, §10

endometrium [12] = assay: Example 1 Phase III study: endometrial histology (biopsy)
Method: as §1, §2, §3, §10, §9

[13] = from day 10 until end of treatment
[14] = from first day of menstruation on, or just prior to, first dose of UPA
[15] = follow-up visit, approximately 2 weeks after the third menstruation following 4th treatment course

CC(=O)O[C@]1(C(C)=O)CC[C@H]2[C@@H]3CCC4=CC(=O)CCC4=C3[C@@H](c3ccc(N(C)C)cc3)C[C@@]21C [UPA, 17α-acetoxy-11β[4-N,N-dimethylamino-phenyl)-19-norpregna-4,9-diene-3,20-dione]
median change in the combined volume of the largest three fibroids (uterine fibroids [1]; after UPA treatment and return of menstruation): −45.8%
median change in the combined volume of the largest three fibroids (uterine fibroids [1]; between baseline and end of UPA treatment): −45.1%
women with a ≥25% reduction in the volume of the three largest fibroids (uterine fibroids [1]; in vivo): 74.7%
endometrium biopsy diagnosis by consensus review (endometrium [2]; all biopsy samples, 3 independent pathologists): diagnosis of benign endometrium
incidence of non-physiological changes in endometrium biopsy samples (endometrium [2]; epithelial changes, unusual vascular changes, extensive cyst formation): highest in samples taken following first treatment course and second treatment course
endometrium thickness (endometrium [2]; following a single treatment course of 3 months UPA): an increase in endometrium thickness was observed
frequency of PAEC (endometrium [2]; long-term repeated administration): independent of length of treatment
safety and tolerability assessment [3]: well tolerated
percentage of amenorrheic patients (uterine fibroids [4]; end of 3-month UPA 10 mg once-daily treatment): 78.5%
overall total median change in PBAC score (uterine fibroids [4]; first menstruation following treatment completion compared to baseline, median baseline score 216): −91.5
patients on any particular day reporting any bleeding (uterine fibroids [4]; [13]): < 5%
patients on any particular day reporting heavy bleeding (uterine fibroids [4]; [13]): < 2%
mean time to amenorrhea (uterine fibroids [4]; [14]): 10.6 days
median time to amenorrhea (uterine fibroids [4]; [14]): 5.0 days
pain, median change from baseline score (uterine fibroids [5]; Week 5): −5.0
pain assessed by the VAS, median change in score (uterine fibroids [5]; Week 5): −21
pain, median change from baseline score (uterine fibroids [5]; Week 9): −6.0
pain assessed by the VAS, median change in score (uterine fibroids [5]; Week 9): −26
QoL symptom severity, median change from baseline score (uterine fibroids [5]; after UPA treatment): −34.4
health-related QoL (HRQL) total score, median increase compared to baseline (uterine fibroids [5]; after UPA treatment): 28.5
pain, median change from baseline score (uterine fibroids [5]; end of UPA treatment): −6.0
pain assessed by the VAS, median change in score (uterine fibroids [5]; end of UPA treatment): −25
uterine volume measured by US (myomas; during the study, maintained after end of treatment): decreased during the study
total volume of the 3 largest myomas, mean percent change from screening (myomas; end of 4th treatment course): −53.53%
total volume of the 3 largest myomas, median percent change from screening (myomas; end of 4th treatment course): −72.08%
total volume of the 3 largest myomas, mean percent change from screening (myomas; [15]): −33.68%
total volume of the 3 largest myomas, median percent change from screening (myomas; [15]): −58.84%
subjects with more than 9 days of any level of bleeding (heavy bleeding, bleeding or spotting) ([6]; days 9-90, treatment course 1): 15.9%
subjects with more than 9 days of any level of bleeding (heavy bleeding, bleeding or spotting) ([6]; days 9-90, treatment course 2): 6.3%
subjects with more than 9 days of any level of bleeding (heavy bleeding, bleeding or spotting) ([6]; days 9-90, treatment course 3): 3.4%
subjects with more than 9 days of any level of bleeding (heavy bleeding, bleeding or spotting) ([6]; days 9-90, treatment course 4): 3.9%
percentage of subjects in amenorrhea ([6]; end of treatment course 1): 79.5%
percentage of subjects in amenorrhea ([6]; end of treatment course 2): 88.5%
percentage of subjects in amenorrhea ([6]; end of treatment course 3): 88.2%
percentage of subjects in amenorrhea ([6]; end of treatment course 4): 89.7%
return to menstruation ([6]; following the end of each treatment course): al but 4 subjects with available data returned to menstruation
mean time to amenorrhea ([6]; treatment course 1): 9.4 days
median time to amenorrhea ([6]; treatment course 1): 4.0 days
mean time to amenorrhea ([6]; treatment course 2): 3.3 days
median time to amenorrhea ([6]; treatment course 2): 2.0 days
mean time to amenorrhea ([6]; treatment course 3): 5.3 days
median time to amenorrhea ([6]; treatment course 3): 3.0 days
mean time to amenorrhea ([6]; treatment course 4): 4.2 days
median time to amenorrhea ([6]; treatment course 4): 3.0 days
subjects for whom surgery was not performed [7]: 94.7%
percentage of women with endometrial thickness >16 mm (endometrium [8]; end of UPA treatment, 1.5% at screening): 9.1%
patients with endometrial thickness >16 mm (endometrium [8]; three months later): none of the patients assessed had a thickness >16 mm
patient-reported pain, 3 SF-MPQ Parts ([9]; all visits): improvement from baseline at all visits
UFS-QoL average symptom severity score ([9]; compared to baseline): improvement (decrease) from baseline
UFS-QoL HRQL total score ([9]; on average, compared to baseline): improvement (increase)
ED-5D questionnaire, pain/discomfort and anxiety/depression dimensions ([9]; throughout the study): improvement was sustained throughout the study
SAE during the UPA treatment phase ([10]; UPA treatment phase): No SAE occurred
serious adverse events (SAEs) during the study ([10]; all post-treatment, considered not related to study medication): Three serious adverse events (SAEs) were reported for two patients
TEAE breast discomfort/tenderness, women ([10]; during UPA treatment): 3.8%
TEAE fatigue, women ([10]; during UPA treatment): 4.3%
TEAE headache, women ([10]; during UPA treatment): 16.3%
TEAE hot flushes, women ([10]; during UPA treatment): 4.8%
TEAE lower abdominal pain, women ([10]; during UPA treatment): 3.3%
TEAE nasopharyngitis, women ([10]; during UPA treatment): 6.7%
TEAE nausea, women ([10]; during UPA treatment): 3.8%
TEAE pelvic pain, women ([10]; during UPA treatment): 3.8%
TEAE vertigo, women ([10]; during UPA treatment): 3.8%
TEAEs classified as severe ([10]; during UPA treatment): 3.8%
women with TEAEs ([10]; during UPA treatment): 57.4%
women with TEAEs considered to be UPA related ([10]; during UPA treatment): 29.7%
mean E2 level ([11]; Visit 5, during UPA treatment, screening mean 149.9 pg/mL): 81.6 pg/mL
median E2 level ([11]; Visit 5, during UPA treatment, screening median 120.0 pg/mL): 55.0 pg/mL
changes in ACTH, TSH, or prolactin ([11]; during UPA treatment): No significant changes
hepatic transaminases ([11]; small number of patients, all resolved during continued treatment and/or by follow-up visit): marginal increase
percentage of non-physiological endometrial features (endometrium [12]; after treatment, 10.9% at screening): 25.6%
endometrial histology (endometrium [12]; biopsy 12 weeks after UPA treatment (n=38)): benign endometrial histology in all biopsies
endometrial histology (endometrium [12]; following double-blind treatment): benign in all cases

— patent US10172869B2, “Progesterone receptor modulators for use in the therapy of uterine fibroids” (PregLem SA, priority 2013, dated 2019)
